Data from ChEMBL document CHEMBL3091428, “Synthesis and initial biological evaluation of substituted 1-phenylamino-2-thio-4,5-dimethyl-1H-imidazole derivatives” (Bioorg Med Chem Lett, 2013).
Values after ≈ are worked out from the molar mass of the structure shown.

Tests used:
[1] = test system: OVCAR-8; assay: Cytotoxicity against human OVCAR8 cells assessed as cell growth after 48 hrs by SRB assay relative to control; assay type: functional
[2] = test system: SK-MEL-5; assay: Cytotoxicity against human SK-MEL-5 cells assessed as cell growth after 48 hrs by SRB assay relative to control; assay type: functional
[3] = test system: SK-MEL-2; assay: Cytotoxicity against human SK-MEL-2 cells assessed as cell growth after 48 hrs by SRB assay relative to control; assay type: functional
[4] = test system: Malme-3M; assay: Cytotoxicity against human MALME-3M cells assessed as cell growth after 48 hrs by SRB assay relative to control; assay type: functional
[5] = test system: SNB-19; assay: Cytotoxicity against human SNB19 cells assessed as cell growth after 48 hrs by SRB assay relative to control; assay type: functional
[6] = test system: SF-539; assay: Cytotoxicity against human SF539 cells assessed as cell growth after 48 hrs by SRB assay relative to control; assay type: functional
[7] = test system: KM12; assay: Cytotoxicity against human KM12 cells assessed as cell growth after 48 hrs by SRB assay relative to control; assay type: functional
[8] = test system: HCT-15; assay: Cytotoxicity against human HCT15 cells assessed as cell growth after 48 hrs by SRB assay relative to control; assay type: functional
[9] = test system: NCI-H322M; assay: Cytotoxicity against human NCI-H322M cells assessed as cell growth after 48 hrs by SRB assay relative to control; assay type: functional
[10] = test system: NCI-H23; assay: Cytotoxicity against human NCI-H23 cells assessed as cell growth after 48 hrs by SRB assay relative to control; assay type: functional
[11] = test system: HOP-92; assay: Cytotoxicity against human HOP92 cells assessed as cell growth after 48 hrs by SRB assay relative to control; assay type: functional
[12] = test system: HOP-62; assay: Cytotoxicity against human HOP62 cells assessed as cell growth after 48 hrs by SRB assay relative to control; assay type: functional
[13] = test system: RPMI-8226; assay: Cytotoxicity against human RPMI8226 cells assessed as cell growth after 48 hrs by SRB assay relative to control; assay type: functional
[14] = test system: MOLT-4; assay: Cytotoxicity against human MOLT4 cells assessed as cell growth after 48 hrs by SRB assay relative to control; assay type: functional
[15] = Toxicity in brine shrimp larvae assessed as mortality after 24 hrs; assay type: organism-based; settings: artemia salina, in vivo
[16] = test system: Artemia salina; assay: Toxicity in brine shrimp larvae assessed as mortality at 50 ug/ml after 24 hrs; assay type: organism-based; settings: in vivo
[17] = test system: Artemia salina; assay: Toxicity in brine shrimp larvae assessed as mortality at 100 ug/ml after 24 hrs; assay type: organism-based; settings: in vivo
[18] = test system: Listeria monocytogenes; assay: Antimicrobial activity against Listeria monocytogenes ATCC 19115 after 24 hrs by broth microdilution method; assay type: functional; settings: ATCC 19115, 24 h
[19] = test system: Staphylococcus aureus; assay: Antimicrobial activity against Staphylococcus aureus ATCC 25923 after 24 hrs by broth microdilution method; assay type: functional; settings: ATCC 25923, 24 h
[20] = test system: Enterococcus faecalis; assay: Antimicrobial activity against Enterococcus faecalis ATCC 51299 after 24 hrs by broth microdilution method; assay type: functional; settings: ATCC 51299, 24 h
[21] = test system: Escherichia coli; assay: Antimicrobial activity against Escherichia coli ATCC 35218 after 24 hrs by broth microdilution method; assay type: functional; settings: ATCC 35218, 24 h
[22] = Cytotoxicity against human Hs578T cells assessed as cell growth after 48 hrs by SRB assay relative to control; assay type: functional, Hs-578T
[23] = test system: PC-3; assay: Cytotoxicity against human PC3 cells assessed as cell growth after 48 hrs by SRB assay relative to control; assay type: functional

Row | SMILES | Activity [1] [%] | Activity [2] [%] | Activity [3] [%] | Activity [4] [%] | Activity [5] [%] | Activity [6] [%] | Activity [7] [%] | Activity [8] [%] | Activity [9] [%] | Activity [10] [%] | Activity [11] [%] | Activity [12] [%] | Activity [13] [%] | Activity [14] [%] | MIC [18] [µg/mL] | MIC [19] [µg/mL] | MIC [20] [µg/mL] | MIC [21] [µg/mL] | Activity [22] [%] | Activity [23] [%] | other results
1 | Cc1nc(SCC(=O)c2ccccc2)n(Nc2ccccc2)c1C | 99.29 | 99.8 | 97.16 | 103.5 | 98.31 | 104.4 | 104.6 | 99.3 | 90.31 | 93.43 | 91.79 | 97.72 | 102.2 | 100.2 | 800 (≈ 2370 µM) | 800 (≈ 2370 µM) | 800 (≈ 2370 µM) | 800 (≈ 2370 µM) | 108 | 102 | LC50 at 24 h [15]: > 1600 µg/mL; Activity [16]: Non-toxic; Activity [17]: Non-toxic
2 | Cc1nc(SCC(=O)c2ccc(Cl)cc2)n(Nc2ccccc2)c1C | 96.67 | 96.98 | 91.02 | 97.11 | 89 | 103.9 | 105 | 92.65 | 88.63 | 89.25 | 76.51 | 101.2 | 92.33 | 87.31 | 400 (≈ 1080 µM) | 800 (≈ 2150 µM) | 400 (≈ 1080 µM) | 400 (≈ 1080 µM) | 96.61 | 91.86 | 
3 | COc1ccc(C(=O)CSc2nc(C)c(C)n2Nc2ccccc2)cc1 | 100.7 | 100.7 | 94.21 | 101.4 | 96.63 | 100.8 | 97.97 | 88.63 | 82.37 | 88.38 | 82.74 | 100.7 | 94.68 | 89.96 | 800 (≈ 2180 µM) | 800 (≈ 2180 µM) | 800 (≈ 2180 µM) | 800 (≈ 2180 µM) | 107.2 | 89.35 | 
